# Assays:
# [1] = tested on: MRSA strain Col; assay: Methicillin potentiation (methicillin MIC reduction), FIG. 1; assay type: cell-based, Staphylococcus aureus; conditions: potentiator at 0, 5, and 10 μg/ml
# Procedure: (§1) The methicillin MIC at 0, 5, and 10 μg/ml of the potentiating molecules is shown. The structures of the two potentiating molecules are also shown. These potentiators were identified by screening by the methods of Examples 1 and 2, and the MIC reduction evaluated by the method of Example 3.
# (§2) Compounds which meet the first two criteria for follow-up are evaluated in a standard microdilution assessment of the MIC with methicillin for MRSA. (see Lorian, Antibiotics in Laboratory Medicine, 3rd ed., pp. 72-75 (1991).) In order to be carried further, the MIC of methicillin preferably is reduced in the presence of the potentiator to at most twice the MIC of a susceptible strain for methicillin. (However, that level of reduction is not essential, since in particular circumstances a potentiator which provides a lesser reduction in the MIC can be useful.) In cases where susceptibility breakpoints are not available or the organism is not resistant to the drug whose action is being potentiated, the MIC preferably must be reduced by several twofold dilutions. We describe herein two compounds identified as having methicillin potentiating activity. These two potentiators meet the first three desired pharmacologic criteria as described above: (1) Potentiation of an anti-bacterial agent, (2) Little or no inhibition of the target organisms when used alone, and (3) Ability to reduce the MIC of an antibacterial agent to less than or equal to two times the MIC of an equivalent bacterial strain susceptible to that agent.
# (§3) MICs for the compounds were determined in the presence of 0, 5, and 10 μg/ml of each compound. MRSA cells were grown in the presence of 0, 5, and 10 μg/ml test compound and concentrations of methicillin obtained from serial two-fold dilutions starting at 1024 μg/ml to 0.002 μg/ml (This range can be extended or refined as appropriate.) as follows: A fresh inoculum of MRSA cells was grown at 35° C. in Mueller-Hinton Broth (MHB) overnight and then diluted 1/50 in the same medium. After regrowth at 35° C. to an OD600 of 0.2-0.4 (1-2 hrs.), the cells were diluted 1/1000 in MHB. In a microtiter plate, 50 μl of this diluted culture were combined with 50 μl MHB containing 0, 10, or 20 μg/ml test compound to give starting growth conditions of 5×10^5 cfu/ml in MHB, with 0, 5, or 10 μg/ml test compound. The plate was placed in a humidified 35° C. incubator for 24 hours, and cell growth or inhibition was read as turbidity (OD600).
# [2] = tested on: MRSA strain MRSA76; assay: as above; assay type: cell-based, Staphylococcus aureus; conditions: potentiator at 0, 5, and 10 μg/ml
# Procedure: as §1, §2, §3
# [3] = tested on: methicillin sensitive strain Col8A; assay: Methicillin MIC in methicillin sensitive strain with potentiator, FIG. 1; assay type: cell-based, Staphylococcus aureus; conditions: potentiator at 0, 5, and 10 μg/ml
# [4] = tested on: MRSA strain Col; assay: Potentiating effect for 17 antimicrobial agents (MIC reduction), FIG. 2; assay type: cell-based, Staphylococcus aureus
# Procedure: FIG. 2 is a table showing the potentiating effect of one of the potentiating molecules from FIG. 1 for 17 antimicrobial agents in MRSA strain Col. The MIC is shown at 0, 5, and 10 μg/ml of potentiator.
# as §3
# The procedures used in Examples 1-3 to determine potentiation activity, and MIC reduction have been carried out using larixol acetate as the test compound and various antibacterial agents in place of methicillin. […]
# [5] = tested on: MRSA strain Col 2278; assay: Imipenem potentiation (MIC reduction), FIG. 4; assay type: cell-based, Staphylococcus aureus; conditions: compound at 10 μg/ml
# Procedure: (§4) FIG. 4 is a table showing the imipenem potentiation effect of the second compound from FIG. 1 at 10 μg/ml in 5 MRSA strains (Col, Col 2278, sa 038, Spain 356, and Spain 195).
# [6] = tested on: MRSA strain Col; assay: Imipenem potentiation (MIC reduction), FIG. 4; assay type: cell-based, Staphylococcus aureus; conditions: compound at 10 μg/ml
# Procedure: as §4
# [7] = tested on: MRSA strain Spain 195; assay: Imipenem potentiation (MIC reduction), FIG. 4; assay type: cell-based, Staphylococcus aureus; conditions: compound at 10 μg/ml
# Procedure: as §4
# [8] = tested on: MRSA; assay: Potentiation screening assay: methicillin MIC reduction in MRSA; assay type: cell-based, Staphylococcus aureus; conditions: 0, 5, and 10 μg/ml test compound
# Procedure: After regrowth at 35° C. to an OD600 of 0.2-0.4 (1-2 hrs.), the cells are diluted 1/1000 in MHB. […] The plate is placed in a humidified 35° C. incubator for 5-24 hours, and cell growth or inhibition is read as turbidity (OD600). Two positive and one negative controls for growth are cells grown MHB, cells grown in MHB plus 20 μg/ml methicillin alone (without test compound), and uninoculated MHB respectively.
# Compounds which meet the first two criteria for follow-up are evaluated in a standard microdilution assessment of the MIC with methicillin for MRSA. (see Lorian, Antibiotics in Laboratory Medicine, 3rd ed., pp. 72-75 (1991).) In order to be carried further, the MIC of methicillin preferably is reduced in the presence of the potentiator to at most twice the MIC of a susceptible strain for methicillin.
# as §3, with “In a microtiter plate, 50 μl of this diluted culture were combined with 50 μl MHB containing 0, 10, or 20 μg/ml test compound to give starting growth conditions of 5×10^5 cfu/ml in MHB, with 0, 5, or 10 μg/ml test compound.” left out
# [9] = tested on: MRSA; assay: Specificity: intrinsic antibacterial activity without antibacterial agent; assay type: cell-based, Staphylococcus aureus; conditions: test compound alone, without methicillin
# Procedure: In order to ascertain that the test compound is not primarily responsible for inhibition of growth, MRSA cells are grown in the presence of 5 μg/ml test compound as follows: A fresh inoculum of MRSA cells is grown at 35° C. in Mueller-Hinton Broth (MHB) overnight and then diluted 1/50 in the same medium. After regrowth at 35° C. to an OD600 of 0.2-0.4 (1-2 hrs.), the cells are diluted 1/1000 in MHB. In a microtiter plate, 50 μl of this diluted culture is combined with 50 μl MHB containing 10 μg/ml test compound to give starting growth conditions of 5×10^5 cfu/ml in MHB, with 5 μg/ml test compound. The plate is placed in a humidified 35° C. incubator for 5-24 hours, and cell growth or inhibition is read as turbidity (OD600). To be carried forward to the next step of the potentiator screening assay, the test compound should have little or no intrinsic anti-staphylococcal activity (growth should be at least 75% of the growth of the positive control without methicillin, corrected for background), or that activity should be explicable without indicating the probability of human toxicity.
# [10] = tested on: Enterococcus faecium; assay: Ampicillin potentiation screen; assay type: cell-based; conditions: highly ampicillin-resistant Enterococcus faecium, ampicillin alone
# Procedure: The ampicillin potentiation screen is a high-throughput (96 well), whole cell assay in which compounds of unknown pharmacological activity are tested for their ability to induce an ampicillin-susceptible phenotype in highly ampicillin-resistant Enterococcus faecium (MIC of ampicillin>100μg/ml). These highly ampicillin-resistant bacteria are grown in the presence of ampicillin and various test compounds. The concentration of ampicillin used is well below the MIC for the resistant cells, but higher than the MIC for the isogeneic susceptible cells. Therefore, resistant cells can grow in the presence of the ampicillin without test compound, but the growth of susceptible cells is repressed. Growth is assessed after 5-24 hours by turbidity. Compounds are also tested for intrinsic antibacterial activity in the absence of ampicillin. Compounds which repress Enterococcus faecium growth when used together with ampicillin, which show no, or only a little, intrinsic antibacterial activity, are considered potentiators. […]
# A fresh inoculum of E. faecium cells are grown at 35° C. in Brain-Heart Infusion Broth (BHI) overnight and then diluted 1/50 in the same medium. […] The plate is placed in a humidified 35° C. incubator for 24 hours, and cell growth or inhibition is read as turbidity (OD600). […]
# [11] = tested on: MRSA Col cells; assay: Time-kill curve with methicillin; assay type: cell-based, Staphylococcus aureus
# Procedure: FIG. 3a is a graph of the number of viable MRSA Col cells/ml versus growth time in hours as determined by the method of Example 4. The graph presents the time kill curve for the first potentiating compound from FIG. 1 at 10 μg/ml with methicillin at 20 μg/ml, and curves for controls (drug-free, methicillin only, and potentiator only). Viable cell counts for all controls were greater than 5×10^8 cells/ml at 24 hours, while the viable cell count for methicillin plus potentiator was approximately 5×10^3 cells/ml after 24 hours.
# A standard time-kill method (see Eliopolous & Moellering, Ch. 13 in Antibiotics in Laboratory Medicine, 3rd ed., Lorian ed., at pp. 441-444) is used to characterize whether the potentiator-drug combination is bacteriostatic or bactericidal. As controls, normal growth of the pathogen (without drug or potentiator) and the effects of the drug alone and the potentiator alone are assessed using the same inoculum culture as is used in the combination time-kill test. Either bacteriostatic or bactericidal effect should be confirmed for the potentiators to progress to further testing.
reduction of methicillin MIC [1],reduction of methicillin MIC [2],reduction of methicillin MIC [3],"MIC reduction of antimicrobial agents ([4]; potentiator at 0, 5, and 10 μg/ml, range of β-lactams, including methicillin, cefazolin, and imipenem)","MIC with potentiator relative to MIC of the antibacterial agent in the absence of the potentiator ([4]; some β-lactams, larixol acetate as potentiator)",imipenem MIC reduction [5],imipenem MIC reduction [6],imipenem MIC reduction [7],effect on the MIC for methicillin [8],MIC [10],SMILES,intrinsic antimicrobial activity [9],"viable cell count, methicillin plus potentiator ([11]; potentiator 10 μg/ml with methicillin 20 μg/ml, after 24 hours)","viable cell count, potentiator only (control) ([11]; potentiator only, at 24 hours)"
reducing the methicillin MIC,reducing the methicillin MIC,absence of a reduction in the MIC,Significant MIC reduction,less than 10^-3,three orders of magnitude,three orders of magnitude,three orders of magnitude,reduce the MIC for methicillin,–,C=CC(C)(O)CCC1C(=C)CC(OC(C)=O)C2C(C)(C)CCCC12C (stereo not drawn) [larixol acetate],not exhibiting intrinsic antimicrobial activity,–,–
–,–,–,–,–,–,–,–,–,> 100 mg/L,CC1(C)S[C@@H]2[C@H](NC(=O)[C@H](N)c3ccccc3)C(=O)N2[C@H]1C(=O)O [ampicillin],–,–,–
reducing the methicillin MIC,reducing the methicillin MIC,absence of a reduction in the MIC,–,–,–,–,–,reduce the MIC for methicillin,–,"COc1ccc2c(c1)CCC1C2CCC2CC(O)CCC21C (stereo not drawn) [HMM-dodecahydrochrysene, 2-hydroxy-8-methoxy-4a-methyl-1,2,3,4,4a,4b,5,6,10b,11,12,12a-dodecahydrochrysene]",not exhibiting intrinsic antimicrobial activity,approximately 5×10^3 cells/ml,greater than 5×10^8 cells/ml

# — patent publication US5883074A, “Potentiators of antibacterial agents” (priority 1995, dated 1999)
